# Laboratory results from patent US11370798B2 (Vertex Pharmaceuticals Incorporated, priority 2012, dated 2022).
# Test system: HCT116 colorectal cancer cells
# Assay: Cisplatin sensitization assay (96 h cell viability MTS);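 also: Test-compound concentration that lowers the Cisplatin IC50 by a set fold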
# Assay type: cell-based
# Details: compound and Cisplatin added simultaneously, Cisplatin sensitization value
# Description: Compounds can be screened for their ability to sensitize HCT116 colorectal cancer cells to Cisplatin using a 96 h cell viability (MTS) assay. […] Compounds and Cisplatin are then both added simultaneously to the cell media in 2-fold serial dilutions from a top final concentration of 10 μM as a full matrix of concentrations in a final cell volume of 200 μl, and the cells are then incubated at 37° C. in 5% CO2. After 96 h, 40 μl of MTS reagent (Promega G358a) is added to each well and the cells are incubated for 1 h at 37° C. in 5% CO2.
# Compounds with a Cisplatin sensitization value of <0.02 μM are marked with “+++.” Compounds with a Cisplatin sensitization value>0.02 μM but <0.2 μM are marked with “++.” Compounds with a Cisplatin sensitization value>0.2 μM but <5 μM are marked with “+.”
row,SMILES,Cisplatin Sensitization Assay
1,"Nc1nn2cc(F)cnc2c1C(=O)Nc1cncc(F)c1N1CCN(S(=O)(=O)C2CCOCC2)CC1 [I-N-158, 2-amino-6-fluoro-N-(5-fluoro-4-(4-((tetrahydro-2H-pyran-4-yl)sulfonyl)piperazin-1-yl)pyridin-3-yl)pyrazolo[1,5-a]pyrimidine-3-carboxamide]",+++ (Cisplatin sensitization value of <0.02 μM)
2,"N#CCc1cnc2c(C(=O)Nc3cnccc3OC3CCCOC3)c(N)nn2c1 (stereo not drawn) [I-O-41, 2-amino-6-(cyanomethyl)-N-(4-((tetrahydro-2H-pyran-3-yl)oxy)pyridin-3-yl)pyrazolo[1,5-a]pyrimidine-3-carboxamide]",+++ (Cisplatin sensitization value of <0.02 μM)
3,"Cc1cc(C(=O)N2CCN(C)CC2)ccc1-c1ccncc1NC(=O)c1c(N)nn2cc(F)cnc12 [I-C-45, 2-amino-6-fluoro-N-(4-(2-methyl-4-(4-methylpiperazine-1-carbonyl)phenyl)pyridin-3-yl)pyrazolo[1,5-a]pyrimidine-3-carboxamide]",+++ (Cisplatin sensitization value of <0.02 μM)
4,"CC1(S(C)(=O)=O)CCN(c2ccncc2NC(=O)c2c(N)nn3cc(F)cnc23)CC1 [I-N-243, 2-amino-6-fluoro-N-(4-(4-methyl-4-(methylsulfonyl)piperidin-1-yl)pyridin-3-yl)pyrazolo[1,5-a]pyrimidine-3-carboxamide]",+++ (Cisplatin sensitization value of <0.02 μM)
5,"Nc1nn2cc(F)cnc2c1C(=O)Nc1cncc(F)c1C1CCN(C2COC2)CC1 [I-C-13, 2-amino-6-fluoro-N-(5-fluoro-4-(1-(oxetan-3-yl)piperidin-4-yl)pyridin-3-yl)pyrazolo[1,5-a]pyrimidine-3-carboxamide]",++ (Cisplatin sensitization value>0.02 μM but <0.2 μM)
6,"Nc1nn2cc(Cl)cnc2c1C(=O)Nc1cnccc1OC1CC2(CNC2)C1 [I-O-72, N-(4-(2-azaspiro[3.3]heptan-6-yloxy)pyridin-3-yl)-2-amino-6-chloropyrazolo[1,5-a]pyrimidine-3-carboxamide]",+ (Cisplatin sensitization value>0.2 μM but <5 μM)
7,"Cc1nccn1-c1ccncc1NC(=O)c1c(N)nn2cc(F)cnc12 [I-N-28, 2-amino-6-fluoro-N-(4-(2-methyl-1H-imidazol-1-yl)pyridin-3-yl)pyrazolo[1,5-a]pyrimidine-3-carboxamide]",+++ (Cisplatin sensitization value of <0.02 μM)
8,"Nc1nn2cc(Cl)cnc2c1C(=O)Nc1cnccc1O[C@H]1CCNC1 [I-O-76, (S)-2-amino-6-chloro-N-(4-(pyrrolidin-3-yloxy)pyridin-3-yl)pyrazolo[1,5-a]pyrimidine-3-carboxamide]",++ (Cisplatin sensitization value>0.02 μM but <0.2 μM)
9,"CC1(C)CN(c2ccncc2NC(=O)c2c(N)nn3cc(F)cnc23)CCS1(=O)=O [I-N-252, 2-amino-N-(4-(2,2-dimethyl-1,1-dioxidothiomorpholino)pyridin-3-yl)-6-fluoropyrazolo[1,5-a]pyrimidine-3-carboxamide]",+++ (Cisplatin sensitization value of <0.02 μM)
10,"N#CC1CN(C(=O)C2CCN(c3c(F)cncc3NC(=O)c3c(N)nn4cc(F)cnc34)CC2)C1 [I-G-76, 2-amino-N-(4-(4-(3-cyanoazetidine-1-carbonyl)piperidin-1-yl)-5-fluoropyridin-3-yl)-6-fluoropyrazolo[1,5-a]pyrimidine-3-carboxamide]",+++ (Cisplatin sensitization value of <0.02 μM)
11,"Cc1ccncc1NC(=O)c1c(N)nn2cc(F)cnc12 [I-C-4, 2-amino-6-fluoro-N-(4-methylpyridin-3-yl)pyrazolo[1,5-a]pyrimidine-3-carboxamide]",++ (Cisplatin sensitization value>0.02 μM but <0.2 μM)
12,"Nc1nn2cc(F)cnc2c1C(=O)Nc1cnccc1-n1ccnc1C1CC1 [I-N-202, 2-amino-N-(4-(2-cyclopropyl-1H-imidazol-1-yl)pyridin-3-yl)-6-fluoropyrazolo[1,5-a]pyrimidine-3-carboxamide]",+++ (Cisplatin sensitization value of <0.02 μM)
13,"Nc1nn2cc(F)cnc2c1C(=O)Nc1cncc(F)c1N1CCC(OCCN2CCCC2)CC1 [I-N-167, 2-amino-6-fluoro-N-(5-fluoro-4-(4-(2-(pyrrolidin-1-yl)ethoxy)piperidin-1-yl)pyridin-3-yl)pyrazolo[1,5-a]pyrimidine-3-carboxamide]",+++ (Cisplatin sensitization value of <0.02 μM)
14,"CN(C)C1CN(C(=O)C2CCN(c3c(F)cncc3NC(=O)c3c(N)nn4cc(F)cnc34)CC2)C1 [I-G-22, 2-amino-N-(4-(4-(3-(dimethylamino)azetidine-1-carbonyl)piperidin-1-yl)-5-fluoropyridin-3-yl)-6-fluoropyrazolo[1,5-a]pyrimidine-3-carboxamide]",+++ (Cisplatin sensitization value of <0.02 μM)
15,"Nc1nn2cc(F)cnc2c1C(=O)Nc1cncc(F)c1N1CCN(CC(=O)N2CCC2)CC1 [I-N-228, 2-amino-N-(4-(4-(2-(azetidin-1-yl)-2-oxoethyl)piperazin-1-yl)-5-fluoropyridin-3-yl)-6-fluoropyrazolo[1,5-a]pyrimidine-3-carboxamide]",+++ (Cisplatin sensitization value of <0.02 μM)
16,"CC(C#N)c1cnc2c(C(=O)Nc3cnccc3N3CCN(C4COC4)CC3)c(N)nn2c1 (stereo not drawn) [I-N-143, 2-amino-6-(1-cyanoethyl)-N-(4-(4-(oxetan-3-yl)piperazin-1-yl)pyridin-3-yl)pyrazolo[1,5-a]pyrimidine-3-carboxamide]",++ (Cisplatin sensitization value>0.02 μM but <0.2 μM)
17,"COC1(C)CN(C(=O)C2CCN(c3ccncc3NC(=O)c3c(N)nn4cc(F)cnc34)CC2)C1 [I-G-79, 2-amino-6-fluoro-N-(4-(4-(3-methoxy-3-methylazetidine-1-carbonyl)piperidin-1-yl)pyridin-3-yl)pyrazolo[1,5-a]pyrimidine-3-carboxamide]",+++ (Cisplatin sensitization value of <0.02 μM)
18,"Nc1nn2cc(F)cnc2c1C(=O)Nc1cncc(F)c1N1CC(=O)N2CCCC2C1 (stereo not drawn) [I-N-232, 2-amino-6-fluoro-N-(5-fluoro-4-(4-oxohexahydropyrrolo[1,2-a]pyrazin-2(1H)-yl)pyridin-3-yl)pyrazolo[1,5-a]pyrimidine-3-carboxamide]",++ (Cisplatin sensitization value>0.02 μM but <0.2 μM)
19,"Cc1nnc(C2CCN(c3ccncc3NC(=O)c3c(N)nn4cc(F)cnc34)CC2)o1 [I-N-265, 2-amino-6-fluoro-N-(4-(4-(5-methyl-1,3,4-oxadiazol-2-yl)piperidin-1-yl)pyridin-3-yl)pyrazolo[1,5-a]pyrimidine-3-carboxamide]",++ (Cisplatin sensitization value>0.02 μM but <0.2 μM)
20,"Nc1nn2cc(Cl)cnc2c1C(=O)Nc1cnccc1OC1CNC1 [I-O-73, 2-amino-N-(4-(azetidin-3-yloxy)pyridin-3-yl)-6-chloropyrazolo[1,5-a]pyrimidine-3-carboxamide]",+ (Cisplatin sensitization value>0.2 μM but <5 μM)
21,"CC(C)N1CCN2CCN(c3ccncc3NC(=O)c3c(N)nn4cc(F)cnc34)CC2C1=O (stereo not drawn) [I-N-245, 2-amino-6-fluoro-N-(4-(8-isopropyl-9-oxohexahydro-1H-pyrazino[1,2-a]pyrazin-2(6H)-yl)pyridin-3-yl)pyrazolo[1,5-a]pyrimidine-3-carboxamide]",++ (Cisplatin sensitization value>0.02 μM but <0.2 μM)
22,"CN1C[C@@H]2CCN(c3ccncc3NC(=O)c3c(N)nn4cc(F)cnc34)C[C@@H]2C1=O [I-N-224, 2-amino-6-fluoro-N-(4-((3aR,7aR)-2-methyl-3-oxohexahydro-1H-pyrrolo[3,4-c]pyridin-5(6H)-yl)pyridin-3-yl)pyrazolo[1,5-a]pyrimidine-3-carboxamide]",+ (Cisplatin sensitization value>0.2 μM but <5 μM)
23,"Nc1nn2cc(F)cnc2c1C(=O)Nc1cnccc1OC1CCN(C2COC2)CC1 [Compound I-0-11, 2-amino-6-fluoro-N-(4-((1-(oxetan-3-yl)piperidin-4-yl)oxy)pyridin-3-yl)pyrazolo[1,5-a]pyrimidine-3-carboxamide]",+++ (Cisplatin sensitization value of <0.02 μM)
24,"CCOC1CN(C(=O)C2CCN(c3ccncc3NC(=O)c3c(N)nn4cc(F)cnc34)CC2)C1 [I-G-91, 2-amino-N-(4-(4-(3-ethoxyazetidine-1-carbonyl)piperidin-1-yl)pyridin-3-yl)-6-fluoropyrazolo[1,5-a]pyrimidine-3-carboxamide]",+++ (Cisplatin sensitization value of <0.02 μM)
25,"Nc1nn2cc(Cl)cnc2c1C(=O)Nc1cnccc1N1CCC(N2CC[S+]([O-])CC2)CC1 [I-N-100, 2-amino-6-chloro-N-(4-(4-(1-oxidothiomorpholino)piperidin-1-yl)pyridin-3-yl)pyrazolo[1,5-a]pyrimidine-3-carboxamide]",++ (Cisplatin sensitization value>0.02 μM but <0.2 μM)
26,"COCCN(C)C(=O)C1CCN(c2c(F)cncc2NC(=O)c2c(N)nn3cc(F)cnc23)CC1 [I-G-40, 2-amino-6-fluoro-N-(5-fluoro-4-(4-((2-methoxyethyl)(methyl)carbamoyl)piperidin-1-yl)pyridin-3-yl)pyrazolo[1,5-a]pyrimidine-3-carboxamide]",+++ (Cisplatin sensitization value of <0.02 μM)
27,"Nc1nn2cc(F)cnc2c1C(=O)Nc1cnccc1-c1ccc(C(=O)N2CCC(N3CCC3)CC2)nc1 [I-C-54, 2-amino-N-(6-(4-(azetidin-1-yl)piperidine-1-carbonyl)-[3,4′-bipyridin]-3′-yl)-6-fluoropyrazolo[1,5-a]pyrimidine-3-carboxamide]",+++ (Cisplatin sensitization value of <0.02 μM)
